Measurements reported in article PMC8231556, “Inhibiting Endothelial Cell Function in Normal and Tumor Angiogenesis Using BMP Type I Receptor Macrocyclic Kinase Inhibitors” (Cancers, 2021).

Assays:
[1] = test system: constitutively active ALK1 (caALK1); test: caALK1-induced BRE-Luc reporter activity in C2C12 cells; format: cell-based; details: for inhibition of caALK1 compared to caALK2 (BRE-Luc): C2C12 cells
Text: To further investigate and validate the selective inhibitory effects of OD16 and OD29 toward BMP9/ALK1 and BMP6/ALK2 signaling, we transfected C2C12 myoblast cells with constitutively active mutant ALK1 and ALK2 (caALK1 and caALK2). These constitutively active receptors signal in the absence of exogenous ligands and allow for a more direct assessment of inhibitory effects that are elicited by kinase receptor inhibitors. […]
Figure S4. OD29 and OD16 are two small molecule BMP type I receptors kinase inhibitors in C2C12 cells. Effects of vehicle control (DMSO), LDN−193189, OD16 or OD29 on BRE transcriptional luciferase reporter activity induced by the ectopic expression of caALK1 (A) or caALK2 (B) in C2C12 cells. Cells were incubated with the inhibitors in three different con-centrations (0.1 μM, 0.5 μM or 1 μM) for 16 hours. Representative results from three biologically independent experiments are shown as mean ± SD. NS, not significant; * p < 0.05, ** p < 0.005; *** p < 0.001.

ACVR2A = ACVR2A (Homo sapiens, UniProt P27037); test: radiometric protein kinase assay, affinity (Kd); format: binding
Sequence of ACVR2A (P27037 20-513): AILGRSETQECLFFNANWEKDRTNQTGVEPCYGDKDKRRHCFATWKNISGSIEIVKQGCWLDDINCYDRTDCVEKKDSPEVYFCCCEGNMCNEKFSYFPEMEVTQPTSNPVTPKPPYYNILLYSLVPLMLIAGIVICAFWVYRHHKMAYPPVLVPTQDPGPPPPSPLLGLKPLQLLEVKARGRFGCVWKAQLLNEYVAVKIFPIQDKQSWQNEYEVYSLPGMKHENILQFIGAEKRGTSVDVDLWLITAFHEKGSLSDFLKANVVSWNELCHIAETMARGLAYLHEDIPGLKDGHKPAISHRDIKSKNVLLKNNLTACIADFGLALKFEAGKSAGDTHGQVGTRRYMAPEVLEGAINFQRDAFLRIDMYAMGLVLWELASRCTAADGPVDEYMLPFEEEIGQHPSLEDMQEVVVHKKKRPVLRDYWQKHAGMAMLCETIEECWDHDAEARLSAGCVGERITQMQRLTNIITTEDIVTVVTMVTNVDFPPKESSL
Protocol: The binding interaction profile of the compounds for ALK1–6, ACVR2A, ACVR2B, and TGFβR2 was determined by using radiometric protein kinase assay. For each compound, ten different concentrations (from 3 × 10^−6 M to 9 × 10^−11 M) were used in the protein kinase reaction. The inhibitor binding constants (Kd values) were calculated based on the 10 corresponding residual activities for each compound using Prism 5.04 (Graphpad, San Diego, CA, USA) according to the following formula:Kd = ([K][I]/[C]) where [K] = molar concentration of non-inhibitor bound kinase at equilibrium, [I] = molar concentration of the free inhibitor at equilibrium, [C] = molar concentration of kinase-inhibitor complex at equilibrium.

DAPK1 = biological target: T1, DAPK1 (Homo sapiens, UniProt P53355); test: radiometric kinase profiling (33 PanQinase); format: biochemical; details: read-out: Inhibitory effect (%) DAPK1
T1 construct: purchased Proqinase, Germany
T1 sequence (P53355 whole entry): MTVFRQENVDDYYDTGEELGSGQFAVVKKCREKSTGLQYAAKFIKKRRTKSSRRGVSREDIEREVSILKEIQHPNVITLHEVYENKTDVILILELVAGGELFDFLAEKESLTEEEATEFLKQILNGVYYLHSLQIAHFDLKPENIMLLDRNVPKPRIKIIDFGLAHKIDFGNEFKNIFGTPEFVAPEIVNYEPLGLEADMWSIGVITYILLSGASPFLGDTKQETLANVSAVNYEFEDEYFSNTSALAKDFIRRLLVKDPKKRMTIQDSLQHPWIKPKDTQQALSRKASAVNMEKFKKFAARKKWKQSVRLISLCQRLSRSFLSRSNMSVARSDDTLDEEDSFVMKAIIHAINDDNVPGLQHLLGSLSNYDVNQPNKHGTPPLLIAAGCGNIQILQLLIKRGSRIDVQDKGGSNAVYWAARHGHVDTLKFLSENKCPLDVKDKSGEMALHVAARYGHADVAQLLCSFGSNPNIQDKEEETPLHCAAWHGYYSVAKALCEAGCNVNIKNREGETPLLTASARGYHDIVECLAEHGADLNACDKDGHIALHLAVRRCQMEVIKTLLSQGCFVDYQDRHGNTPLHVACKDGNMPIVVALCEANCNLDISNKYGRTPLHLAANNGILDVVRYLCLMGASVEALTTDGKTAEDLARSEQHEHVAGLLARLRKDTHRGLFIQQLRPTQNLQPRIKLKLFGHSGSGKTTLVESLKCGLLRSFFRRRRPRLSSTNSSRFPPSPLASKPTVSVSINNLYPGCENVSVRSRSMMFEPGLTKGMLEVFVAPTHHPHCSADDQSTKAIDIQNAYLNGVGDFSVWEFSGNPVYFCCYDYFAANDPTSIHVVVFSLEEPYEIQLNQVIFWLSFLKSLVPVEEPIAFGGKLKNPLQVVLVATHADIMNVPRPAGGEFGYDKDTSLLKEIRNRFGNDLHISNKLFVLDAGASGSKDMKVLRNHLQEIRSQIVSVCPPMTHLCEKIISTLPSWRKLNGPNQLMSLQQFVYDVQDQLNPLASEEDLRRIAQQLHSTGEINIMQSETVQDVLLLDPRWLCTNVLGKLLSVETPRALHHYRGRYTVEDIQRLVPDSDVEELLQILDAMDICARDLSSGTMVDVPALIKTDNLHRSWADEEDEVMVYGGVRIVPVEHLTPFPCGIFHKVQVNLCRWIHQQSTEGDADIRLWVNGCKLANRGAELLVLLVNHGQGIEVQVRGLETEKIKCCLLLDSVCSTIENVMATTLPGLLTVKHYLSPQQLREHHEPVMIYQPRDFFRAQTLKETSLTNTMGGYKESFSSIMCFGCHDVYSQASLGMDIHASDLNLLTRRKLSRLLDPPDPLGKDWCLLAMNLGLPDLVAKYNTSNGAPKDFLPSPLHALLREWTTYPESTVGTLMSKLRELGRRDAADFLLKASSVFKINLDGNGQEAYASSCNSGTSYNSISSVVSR
Protocol: (§1) The kinase inhibition profile of the compounds was determined by testing 96 protein kinases’ activity using a radiometric protein kinase assay (33 PanQinase® Activity Assay, Proqinase, Germany). In brief, 10 µL of non-radioactive ATP solution (in H2O), 25 µL of assay buffer/[γ-33 P]-ATP mixture, 5 µL of 0.1 μM the tested compound in 10% DMSO and 10 µL of enzyme/substrate were mixed in 96-well FlashPlatesTM (Perkin Elmer, Boston, MA, USA). The reaction was conducted at 30 °C for 60 min. To stop the reaction, 50 µL of 2% (v/v) H3PO4 was added into the protein kinase reaction cocktails. After which, with 200 µL 0.9% (w/v) NaCl twice, the incorporation of ^33 Pi (counting of “cpm”) was determined with a microplate scintillation counter (Wallac Microbeta, Boston, MA, USA). All protein kinase assays were performed using a BeckmanCoulter Biomek 2000/SL robotic system (Brea, CA, USA). The residual activity (in %) for each compound was normalized to 100% enzyme activity (untreated control) and background (negative control).

HIPK1 = biological target: T2, HIPK1 (Homo sapiens, UniProt Q86Z02); test: radiometric kinase profiling (33 PanQinase); format: biochemical; details: read-out: Inhibitory effect (%) HIPK1
T2 construct: purchased ProQinase (33PanQinase Activity Assay)
T2 sequence (Q86Z02 whole entry): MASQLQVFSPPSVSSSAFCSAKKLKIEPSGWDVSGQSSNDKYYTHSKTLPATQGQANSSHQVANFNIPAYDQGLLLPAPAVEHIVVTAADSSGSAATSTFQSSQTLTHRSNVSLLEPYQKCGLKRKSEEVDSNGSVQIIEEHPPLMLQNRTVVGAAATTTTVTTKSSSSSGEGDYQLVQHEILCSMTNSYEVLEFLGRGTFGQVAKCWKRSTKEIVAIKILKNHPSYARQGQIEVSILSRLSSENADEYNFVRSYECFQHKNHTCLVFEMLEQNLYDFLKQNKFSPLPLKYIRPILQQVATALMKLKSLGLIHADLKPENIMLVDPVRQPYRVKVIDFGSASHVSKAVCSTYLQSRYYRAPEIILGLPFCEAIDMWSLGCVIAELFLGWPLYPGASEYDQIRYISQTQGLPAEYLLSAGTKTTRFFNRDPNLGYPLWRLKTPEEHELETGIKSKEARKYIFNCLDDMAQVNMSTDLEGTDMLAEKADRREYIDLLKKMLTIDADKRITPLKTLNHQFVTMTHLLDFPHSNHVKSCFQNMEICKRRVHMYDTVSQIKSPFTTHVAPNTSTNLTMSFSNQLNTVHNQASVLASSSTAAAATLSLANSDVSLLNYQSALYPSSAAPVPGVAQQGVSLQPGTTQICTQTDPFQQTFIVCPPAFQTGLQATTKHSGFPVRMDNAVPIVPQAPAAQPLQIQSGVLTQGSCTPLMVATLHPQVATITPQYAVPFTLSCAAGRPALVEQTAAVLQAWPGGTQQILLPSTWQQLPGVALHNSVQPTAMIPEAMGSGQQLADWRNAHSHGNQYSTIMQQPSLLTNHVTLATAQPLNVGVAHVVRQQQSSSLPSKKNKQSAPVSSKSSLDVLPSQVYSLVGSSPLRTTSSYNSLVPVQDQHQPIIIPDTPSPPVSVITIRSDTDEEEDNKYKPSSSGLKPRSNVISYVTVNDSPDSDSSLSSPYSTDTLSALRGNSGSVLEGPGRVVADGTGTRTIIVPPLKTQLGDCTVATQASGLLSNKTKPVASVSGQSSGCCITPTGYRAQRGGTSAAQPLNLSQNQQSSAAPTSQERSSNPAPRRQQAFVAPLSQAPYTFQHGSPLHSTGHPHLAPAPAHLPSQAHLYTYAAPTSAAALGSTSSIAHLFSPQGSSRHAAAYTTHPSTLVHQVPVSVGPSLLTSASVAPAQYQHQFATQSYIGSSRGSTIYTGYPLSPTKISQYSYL
Protocol: as §1

MET = biological target: T3, MET (Homo sapiens, UniProt P08581); test: radiometric kinase profiling (33 PanQinase); format: biochemical; details: read-out: Inhibitory effect (%) MET
T3 construct: purchased ProQinase (33PanQinase Activity Assay)
Protocol: as §1

PRKCB1_II = biological target: T4, PRKCB1_II (Homo sapiens, UniProt P05771); test: radiometric kinase profiling (33 PanQinase); format: biochemical; details: read-out: Inhibitory effect (%) PRKCB1_II
T4 construct: purchased ProQinase (33PanQinase Activity Assay)
T4 sequence (P05771 1-673 isoform P05771-2): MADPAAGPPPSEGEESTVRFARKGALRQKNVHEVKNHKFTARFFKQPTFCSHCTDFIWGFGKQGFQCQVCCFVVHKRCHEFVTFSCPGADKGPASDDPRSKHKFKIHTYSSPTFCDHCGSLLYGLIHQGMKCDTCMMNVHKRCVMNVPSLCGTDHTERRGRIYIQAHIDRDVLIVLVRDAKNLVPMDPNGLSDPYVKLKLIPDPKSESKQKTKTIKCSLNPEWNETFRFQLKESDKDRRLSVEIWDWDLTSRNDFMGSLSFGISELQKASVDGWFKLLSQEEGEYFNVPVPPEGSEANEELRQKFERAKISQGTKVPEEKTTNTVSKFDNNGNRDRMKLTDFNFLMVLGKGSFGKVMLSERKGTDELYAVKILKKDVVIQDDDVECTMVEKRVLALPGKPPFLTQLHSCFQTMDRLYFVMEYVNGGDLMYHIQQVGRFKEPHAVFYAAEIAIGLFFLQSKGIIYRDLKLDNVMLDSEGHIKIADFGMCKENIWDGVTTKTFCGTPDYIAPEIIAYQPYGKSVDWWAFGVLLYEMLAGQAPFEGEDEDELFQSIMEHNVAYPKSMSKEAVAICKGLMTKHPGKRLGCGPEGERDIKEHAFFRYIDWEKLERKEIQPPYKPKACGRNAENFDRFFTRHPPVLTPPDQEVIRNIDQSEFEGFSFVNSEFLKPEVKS
Protocol: as §1

ACVR1 = biological target: T5, ACVR1 (Homo sapiens, UniProt Q04771); test: radiometric kinase profiling (33 PanQinase); format: biochemical; details: read-out: Inhibitory effect (%) ACVR1
T5 construct: purchased Proqinase, Germany
T5 sequence (Q04771 21-509): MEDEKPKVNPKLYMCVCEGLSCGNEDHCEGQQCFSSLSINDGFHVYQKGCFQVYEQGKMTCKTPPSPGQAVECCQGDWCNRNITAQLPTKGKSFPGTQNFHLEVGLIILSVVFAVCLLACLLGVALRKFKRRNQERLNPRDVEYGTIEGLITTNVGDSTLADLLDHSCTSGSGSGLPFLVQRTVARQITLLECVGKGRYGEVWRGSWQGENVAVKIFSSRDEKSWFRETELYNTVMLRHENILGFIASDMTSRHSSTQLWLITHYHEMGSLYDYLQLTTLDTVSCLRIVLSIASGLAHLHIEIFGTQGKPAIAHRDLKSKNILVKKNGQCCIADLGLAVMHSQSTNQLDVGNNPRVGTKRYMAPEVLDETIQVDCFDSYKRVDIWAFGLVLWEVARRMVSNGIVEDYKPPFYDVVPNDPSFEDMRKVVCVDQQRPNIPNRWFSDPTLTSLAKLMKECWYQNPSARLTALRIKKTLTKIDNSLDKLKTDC
Protocol: as §1

| Compound | inhibition of caALK1 compared to caALK2 (BRE-Luc) [1] | effect on caALK1-induced BRE-Luc reporter activity ([1]; C2C12 cells, 0.1, 0.5 or 1 μM, 16 hours) | Kd (ACVR2A) | inhibition at 0.1 µM (DAPK1) | inhibition at 0.1 µM (HIPK1) | inhibition at 0.1 µM (MET) | inhibition at 0.1 µM (PRKCB1_II) | inhibition at 0.1 µM (ACVR1) |
| --- | --- | --- | --- | --- | --- | --- | --- | --- |
| c1ccc2c(-c3cnn4cc(-c5ccc(N6CCNCC6)cc5)cnc34)ccnc2c1 [LDN-193189, reference compound] | No difference in inhibition between ALK1 and ALK2 | in a dose-dependent manner attenuated | 11 nM | 11.3% | -13.4% | 1.47% | 1.8% | 67.7% |
| CN1CCc2cccc(c2)Nc2nccc(n2)N2CCCc3cc(ccc32)C1 [OD16] | higher sensitivity and more inhibitory potential against caALK1 compared to caALK2 |  | 110 nM | -6.59% | -7.23% | 5.95% | 15.9% | 90.2% |
| CN1CCC(=O)NCCNc2ccn3ncc(c3n2)-c2cccc(c2)C1 [OD29] | higher sensitivity and more inhibitory potential against caALK1 compared to caALK2 |  | 1240 nM | -3.89% | 6.23% | -3.42% | 3.7% | 92.5% |
